Assay results published in patent publication US8809369B2, “Tetrahydroquinoline derivatives” (Hoffmann-La Roche Inc., priority 2011, dated 2014).

Assays:
[1] = tested on: ACC (acetyl-CoA carboxylase); experiment: p-ACC expression level in L6 cell line by Western blot; format: cell-based; conditions: Rattus norvegicus, L6 cells, 2 hours compound treatment, read-out: Activity AC1.3 (ACCp)
Method: (§1) Evaluation of p-AMPK and p-ACC expression level in L6 cell line by Western-Blot
(§2) This method evaluates the changes of AMP-activated protein kinase (AMPK) and ACC (acetyl-CoA carboxylase) activity by small molecular modulators through detecting the level of p-AMPK and p-ACC proteins in L6 cells using Western blot.
(§3) L6 cells are maintained in DMEM medium supplemented with 10% FBS in 10-cm dishes. Prior to compounds treatment, L6 cells are seeded in 12-well-plates at concentration of 3×10^4 cells per well. After 24 hours of incubation in 12-well plates, L6 cells are differentiated by replacing the 10% FBS-DMEM medium with 2% FBS-DMEM. Differentiation usually takes 5 days, during which the culture medium is changed every 2 days.
(§4) The compound concentrations typically range from 32 μM to 0.5 μM with 2-fold dilution in 2 ml DMEM and 7 doses. The final DMSO concentration is 0.4%. Berberine is used as a positive control at concentration of 16 μM. Before compound treatment, starve L6 cells for 2 hours by replacing the medium with DMEM, and then gently aspirate the media from each well. Add the compounds into the plates and incubate at 37 degree 5% CO2 for 2 hours.
(§5) Prepare lysis buffer (RIPA buffer with protease-inhibitors and phosphorate-inhibitors) and place it on ice. After two hour's compound treatment, aspirate the medium from 12-well plates, add 70 ul lysis buffer to each well and keep the plates on ice for 5 min. Then scrape the cell lysate off the plates and transfer it to 1.5 ml eppendorf tubes. Keep the tube on ice for more 10 min, centrifugate the lysate at 13000 rpm, 4 degrees for 15 min and transfer the supernatant to clean tubes.
(§6) Determine protein concentration for each sample using Quickstart Bradford protein quantitation kit. Mix 20 ug protein sample with 4 times loading buffer, heat them at 100° C. for 5 min, store the sample in −80° C. or perform Western blot assay directly. For Western blot assay, load 20 ug samples and 10 ul Pre-stained Protein Maker into 4-12% SDS-PAGE gradient gel. Run the samples at 100 V in the stacking gel and at 120 V in resolving gel until the Bromophenol dye reaches the bottom. Transfer the electrophoresed proteins to a PVDF membrane using Bio-Rad's Transblot for 120 min at 300 mA. Following the completion of transfer, the membrane is blocked with 5% non-fat milk for 2 hours at room temperature before incubated with primary antibody (p-AMPK and p-ACC) at 4° C. overnight. On the next day wash the membrane twice with TBST, add secondary antibody and incubate for 1 hour at room temperature. Wash the membrane twice with TBST. Develop p-AMPK and p-ACC protein expression level on the film in dark room with Amersham ECL plus kit. The bands of each sample are quantitated by Bio-Rad system, The AC1.3 value is analyzed using Prism 5.0.

[2] = tested on: AMP-activated protein kinase (AMPK); experiment: p-AMPK expression level in L6 cell line by Western blot; format: cell-based; conditions: L6 cells, 2 hours compound treatment
Method: as §1, §2, §3, §4, §5, §6

| Compound | EC (1.3-fold) [1] [µM] | Activity AC1.3 (AMPKp) [2] [µM] |
| --- | --- | --- |
| CC1(C)CC(c2cc(F)cc(N3CCOCC3)c2)Nc2ccc(C(=O)NS(C)(=O)=O)cc21 (stereo not shown) [Example 4, N-[2-(3-fluoro-5-morpholin-4-yl-phenyl)-4,4-dimethyl-1,2,3,4-tetrahydro-quinoline-6-carbonyl]-methanesulfonamide] | 6.23 | 6.76 |
| CC1(C)CC(c2cccc(N3CCOCC3)c2)Nc2ccc(S(=O)(=O)N3CCOCC3)cc21 (stereo not shown) [Example 12, 4,4-Dimethyl-6-(morpholine-4-sulfonyl)-2-(3-morpholin-4-yl-phenyl)-1,2,3,4-tetrahydro-quinoline] | 1.86 | 5.70 |
| CC1(C)CC(c2cccc(N3CCOCC3)c2)Nc2ccc(S(=O)(=O)NC3CCC3)cc21 (stereo not shown) [Example 15, 4,4-Dimethyl-2-(3-morpholin-4-yl-phenyl)-1,2,3,4-tetrahydro-quinoline-6-sulfonic acid cyclobutylamide] | 0.1 | 0.1 |
| CC1(C)CC(c2cc(F)cc(N3CCOCC3)c2)Nc2ccc(S(=O)(=O)NC3CCC3)cc21 (stereo not shown) [Example 16, 2-(3-Fluoro-5-morpholin-4-yl-phenyl)-4,4-dimethyl-1,2,3,4-tetrahydro-quinoline-6-sulfonic acid cyclobutylamide] | 3.21 | 19.4 |
| CC1(C)CC(c2cccc(-c3ccccc3O)c2)Nc2ccc(S(=O)(=O)NC3CCC3)cc21 (stereo not shown) [Example 17, 2-(2′-Hydroxy-biphenyl-3-yl)-4,4-dimethyl-1,2,3,4-tetrahydro-quinoline-6-sulfonic acid cyclobutylamide] | 0.05 | 0.41 |
| CC1(C)CC(c2cccnc2)Nc2ccc(C(=O)NS(C)(=O)=O)cc21 (stereo not shown) [Example 18, N-(4,4-dimethyl-2-pyridin-3-yl-1,2,3,4-tetrahydro-quinoline-6-carbonyl)-methanesulfonamide] | 20 | 7.98 |
| Cc1ccc(N2CCOCC2)cc1C1CC(C)(C)c2cc(C(=O)NS(C)(=O)=O)ccc2N1 (stereo not shown) [Example 22, N-[4,4-dimethyl-2-(2-methyl-5-morpholin-4-yl-phenyl)-1,2,3,4-tetrahydro-quinoline-6-carbonyl]-methanesulfonamide] | 0.16 | 0.02 |
| CC(C)(C)c1ccc(-c2cccc(C3CC(C)(C)c4cc(C(=O)NS(=O)(=O)C5CC5)ccc4N3)c2)cc1 (stereo not shown) [Example 40, Cyclopropanesulfonic acid [2-(4′-tert-butyl-biphenyl-3-yl)-4,4-dimethyl-1,2,3,4-tetrahydro-quinoline-6-carbonyl]-amide] | 6.17 | 6.6 |
| Cc1ccc(N2CCN(c3cncc(C4CC(C)(C)c5cc(C(=O)NS(C)(=O)=O)ccc5N4)c3)CC2)c(C)c1 (stereo not shown) [Example 49, N-(2-{5-[4-(2,4-dimethyl-phenyl)-piperazin-1-yl]-pyridin-3-yl}-4,4-dimethyl-1,2,3,4-tetrahydro-quinoline-6-carbonyl)-methanesulfonamide] | 6.93 | 0.15 |
| Cc1ccc(N2CCN(c3cccc(C4CC(C)(C)c5cc(C(=O)NS(C)(=O)=O)ccc5N4)c3)CC2)c(C)c1 (stereo not shown) [Example 53, N-(2-{3-[4-(2,4-dimethyl-phenyl)-piperazin-1-yl]-phenyl}-4,4-dimethyl-1,2,3,4-tetrahydro-quinoline-6-carbonyl)-methanesulfonamide] | 11.7 | 4.79 |
| Cc1ccccc1N1CCN(c2cccc(C3CC(C)(C)c4cc(F)cc(C(=O)NS(C)(=O)=O)c4N3)c2)CC1 (stereo not shown) [Example 57, N-{6-fluoro-4,4-dimethyl-2-[3-(4-o-tolyl-piperazin-1-yl)-phenyl]-1,2,3,4-tetrahydro-quinoline-8-carbonyl}-methanesulfonamide] | 0.61 | 0.85 |
| Cc1ccccc1N1CCN(c2cccc(C3CC(C)(C)c4cc(F)cc(C(=O)NS(=O)(=O)C5CC5)c4N3)c2)CC1 (stereo not shown) [Example 58, Cyclopropanesulfonic acid {6-fluoro-4,4-dimethyl-2-[3-(4-o-tolyl-piperazin-1-yl)-phenyl]-1,2,3,4-tetrahydro-quinoline-8-carbonyl}-amide] | 0.36 | 0.46 |
| CC1(C)CC(c2cccc(N3CCN(c4ccccc4F)CC3)c2)Nc2c(C(=O)NS(C)(=O)=O)cc(F)cc21 (stereo not shown) [Example 59, N-(6-fluoro-2-{3-[4-(2-fluoro-phenyl)-piperazin-1-yl]-phenyl}-4,4-dimethyl-1,2,3,4-tetrahydro-quinoline-8-carbonyl)-methanesulfonamide] | 0.74 | 7.73 |
| CC1(C)CC(c2cccc(N3CCOC3=O)c2)Nc2c(C(=O)NS(=O)(=O)C3CC3)cc(Cl)cc21 (stereo not shown) [Example 65, Cyclopropanesulfonic acid {6-chloro-4,4-dimethyl-2-[3-(2-oxo-oxazolidin-3-yl)-phenyl]-1,2,3,4-tetrahydro-quinoline-8-carbonyl}-amide] | 12.8 | – |
| CC1(C)CC(c2cccc(N3CCCC3)c2)Nc2c(C(=O)NS(C)(=O)=O)cc(F)cc21 (stereo not shown) [Example 69, N-[6-fluoro-4,4-dimethyl-2-(3-pyrrolidin-1-yl-phenyl)-1,2,3,4-tetrahydro-quinoline-8-carbonyl]-methanesulfonamide] | 0.1 | – |
| CC1(C)CC(c2cccc(N3CCCC3)c2)Nc2c(C(=O)NS(=O)(=O)C3CC3)cc(F)cc21 (stereo not shown) [Example 70, Cyclopropanesulfonic acid [6-fluoro-4,4-dimethyl-2-(3-pyrrolidin-1-yl-phenyl)-1,2,3,4-tetrahydro-quinoline-8-carbonyl]-amide] | 0.57 | – |
| CC1(C)CC(c2cccc(N3CCCC3)c2)Nc2c(C(=O)NS(=O)(=O)C3CC3)cc(Cl)cc21 (stereo not shown) [Example 72, Cyclopropanesulfonic acid [6-chloro-4,4-dimethyl-2-(3-pyrrolidin-1-yl-phenyl)-1,2,3,4-tetrahydro-quinoline-8-carbonyl]-amide] | 3.49 | 0.14 |
| CC(C)(C)c1ccc(-c2cncc(C3CC(C)(C)c4cc(C(=O)NS(C)(=O)=O)ccc4N3)c2)cc1 (stereo not shown) [Example 73, N-{2-[5-(4-tert-butyl-phenyl)-pyridin-3-yl]-4,4-dimethyl-1,2,3,4-tetrahydro-quinoline-6-carbonyl}-methanesulfonamide] | 0.1 | – |
| CC(C)(C)c1ccc(-c2cncc(C3CC(C)(C)c4cc(C(=O)NS(=O)(=O)C5CC5)ccc4N3)c2)cc1 (stereo not shown) [Example 74, Cyclopropanesulfonic acid {2-[5-(4-tert-butyl-phenyl)-pyridin-3-yl]-4,4-dimethyl-1,2,3,4-tetrahydro-quinoline-6-carbonyl}-amide] | 1.67 | 0.06 |
| CN(C(=O)c1ccc2c(c1)C(C)(C)CC(c1cccc(N3CCOCC3)c1)N2)S(=O)(=O)C1CC1 (stereo not shown) [Example 75, Cyclopropanesulfonic acid [4,4-dimethyl-2-(3-morpholin-4-yl-phenyl)-1,2,3,4-tetrahydro-quinoline-6-carbonyl]-methyl-amide] | 0.3 | – |
| CC1(C)CC(c2cccc(N3CCN(c4ccccc4)CC3)c2)Nc2c(C(=O)NS(=O)(=O)C3CC3)cccc21 (stereo not shown) [Example 76, Cyclopropanesulfonic acid {4,4-dimethyl-2-[3-(4-phenyl-piperazin-1-yl)-phenyl]-1,2,3,4-tetrahydro-quinoline-8-carbonyl}-amide] | 0.57 | 3.12 |
